Data on 27 molecules can be found in patent US20250382305A1 (PTC THERAPEUTICS, INC., priority 2022, published 2025).

One experiment has as its system ATXN3 pre-mRNA. Briefly: RT-qPCR Assay to Quantify Exon 4 Skipping in ATXN3 pre-mRNA in Cells. It is filed as cell-based. The settings on record: percent exon 4 skipping in ATXN3 pre-mRNA, RT-qPCR of cell lysates; average IC50. In outline:
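Cells plated at 10,000/well onto a 7-point, 3.16-fold DMSO dilution series (duplicates), incubated 24 h at 37 °C, then lysed. Exon 4 skipping measured by one-step RT-qPCR (48 °C RT, 40 cycles); IC50 interpolated from dose-response fit of percent skipping.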
Background: Quantitative PCR measures a nucleic acid by following its amplification.

The subject of experiment [1] is Total ATXN3 (tATXN3) protein. The experiment can be described thus: Endogenous Total ATXN3 (tATXN3) Protein Assay (MSD immunoassay of cell lysates). Particulars: average IC50, total ATXN3 protein in cell lysate after 48 h with compound (Table 1). It is filed as cell-based. The essentials:
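Cells in DMEM/10% FBS were plated at 10,000 per well onto 7-point, 3.16-fold compound dilutions in duplicate for 48 h at 37° C, then lysed. Total ATXN3 in lysates was measured by MSD sandwich immunoassay: mouse anti-ATXN3 capture, rabbit anti-ATXN3 detection, SULFO-TAG anti-rabbit. Average IC50 was reported in star bins.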

Regarding `N[C@@H]1CCCCCC[C@H]1c1cc2nc(Cl)cc(NCc3cccs3)c2s1` [Compound 105, 2-((1R,2R)-2-aminocyclooctyl)-5-chloro-N-(thiophen-2-ylmethyl)thieno[3,2-b]pyridin-7-amine], the IC50 (in the experiment on ATXN3 pre-mRNA; in experiment [1]) was above 1000 nM in each case.
Regarding `N[C@H]1CCCC[C@H]1c1sc2c(NCc3cccs3)cc(Cl)nc2c1Cl` [Compound 13, 2-((1R,2S)-2-aminocyclohexyl)-3,5-dichloro-N-(thiophen-2-ylmethyl)thieno[3,2-b]pyridin-7-amine], the IC50 (in the experiment on ATXN3 pre-mRNA; in experiment [1]) was 30 to 300 nM each time.
Turning to `Cc1c([C@H]2CC=C(C(=O)O)C[C@@H]2N)sc2c(NCc3cccs3)cc(Cl)nc12` [Compound 446, (4S,5S)-5-amino-4-(5-chloro-3-methyl-7-((thiophen-2-ylmethyl)amino)thieno[3,2-b]pyridin-2-yl)cyclohex-1-ene-1-carboxylic acid], the IC50 (with ATXN3 pre-mRNA; in experiment [1]) was at most 30 nM each time.
On to `N[C@@H]1CCCO[C@H]1c1c(I)c2nc(Cl)nc(NCc3cccs3)c2n1C(F)F` [Compound 416, 6-((2R,3R)-3-aminotetrahydro-2H-pyran-2-yl)-2-chloro-5-(difluoromethyl)-7-iodo-N-(thiophen-2-ylmethyl)-5H-pyrrolo[3,2-d]pyrimidin-4-amine], for which the IC50 (in the experiment on ATXN3 pre-mRNA; in experiment [1]) was 30 to 300 nM in each case.
On to `Cc1c([C@H]2CC=CC[C@@H]2N)sc2c(NCc3ccco3)nc(Cl)nc12` [Compound 193, 6-((1S,6S)-6-aminocyclohex-3-en-1-yl)-2-chloro-N-(furan-2-ylmethyl)-7-methylthieno[3,2-d]pyrimidin-4-amine], for which the IC50 (in the experiment with ATXN3 pre-mRNA; in experiment [1]) was at most 30 nM each time.
With `Cc1c([C@H]2CC=CC[C@@H]2N)sc2c(NCc3ccccc3)cc(Cl)nc12` [Compound 258, 2-((1S,6S)-6-aminocyclohex-3-en-1-yl)-N-benzyl-5-chloro-3-methylthieno[3,2-b]pyridin-7-amine], the IC50 with ATXN3 pre-mRNA is at most 30 nM; in experiment [1], 30 to 300 nM.
In the case of `N[C@@H]1CCCO[C@H]1c1sc2c(NCc3ccco3)nc(Cl)nc2c1C#CCO.N[C@H]1CCCO[C@@H]1c1sc2c(NCc3ccco3)nc(Cl)nc2c1C#CCO` (mixture of isomers) [Compound 255, 3-(6-((2R,3R)-3-aminotetrahydro-2H-pyran-2-yl)-2-chloro-4-((furan-2-ylmethyl)amino)thieno[3,2-d]pyrimidin-7-yl)prop-2-yn-1-ol and 3-(6-((2S,3S)-3-aminotetrahydro-2H-pyran-2-yl)-2-chloro-4-((furan-2-ylmethyl)amino)thieno[3,2-d]pyrimidin-7-yl)prop-2-yn-1-ol], the IC50 with ATXN3 pre-mRNA was at most 30 nM; in experiment [1] it was 30 to 300 nM.
In the same order, the values of `N[C@H]1CCCO[C@@H]1c1c(Cl)c2nc(Cl)cc(NCc3cccs3)c2n1C(F)F` [Compound 262, 2-((2S,3S)-3-aminotetrahydro-2H-pyran-2-yl)-3,5-dichloro-1-(difluoromethyl)-N-(thiophen-2-ylmethyl)-1H-pyrrolo[3,2-b]pyridin-7-amine] are 30 to 300 nM and 30 to 300 nM.
As for `N[C@@H]1CCCC(F)(F)[C@H]1c1sc2c(NCc3ccco3)nc(Cl)nc2c1Br` [Compound 412, 6-((1S,6R)-6-amino-2,2-difluorocyclohexyl)-7-bromo-2-chloro-N-(furan-2-ylmethyl)thieno[3,2-d]pyrimidin-4-amine], the IC50 (with ATXN3 pre-mRNA; in experiment [1]) was 300 to 1000 nM throughout.
For `N[C@H]1CCC[C@H]1c1sc2c(NCc3cccs3)cc(Cl)nc2c1Cl` [Compound 4, 2-((1R,2S)-2-aminocyclopentyl)-3,5-dichloro-N-(thiophen-2-ylmethyl)thieno[3,2-b]pyridin-7-amine], the IC50 (with ATXN3 pre-mRNA; in experiment [1]) was 30 to 300 nM each time.
Regarding `N[C@@H]1CC=CC[C@H]1c1c(Cl)c2nc(Cl)cc(NCc3ccccc3)c2n1C(F)F` [Compound 417, 2-((1R,6R)-6-aminocyclohex-3-en-1-yl)-N-benzyl-3,5-dichloro-1-(difluoromethyl)-1H-pyrrolo[3,2-b]pyridin-7-amine], the 50% inhibitory concentration (IC50) (in the experiment with ATXN3 pre-mRNA; in experiment [1]) was at most 30 nM in each case.
As for `CC#CCNc1cc(Cl)nc2c(C)c([C@H]3CCCC[C@@H]3N)sc12` [Compound 363, 2-((1S,2S)-2-aminocyclohexyl)-N-(but-2-yn-1-yl)-5-chloro-3-methylthieno[3,2-b]pyridin-7-amine], the IC50 (with ATXN3 pre-mRNA; in experiment [1]) was 30 to 300 nM in each case.
“2-((1R,6S)-6-amino-2,2-difluorocyclohexyl)-3-bromo-N-((E)-but-2-en-1-yl)-5-chlorothieno[3,2-b]pyridin-7-amine and 2-((1S,6R)-6-amino-2,2-difluorocyclohexyl)-3-bromo-N-((E)-but-2-en-1-yl)-5-chlorothieno[3,2-b]pyridin-7-amine [Compound 425]”: the results for the IC50 (in the experiment with ATXN3 pre-mRNA; in experiment [1]) were 300 to 1000 nM and above 1000 nM, respectively.
In the same order, the values of `N[C@@H]1CCCC[C@H]1c1sc2c(NCc3ccco3)nc(Cl)nc2c1Br` [Compound 67, 6-((1R,2R)-2-aminocyclohexyl)-7-bromo-2-chloro-N-(furan-2-ylmethyl)thieno[3,2-d]pyrimidin-4-amine] are 300 to 1000 nM and 300 to 1000 nM.
In the same order, the values of `N[C@H]1COCC[C@@H]1c1sc2c(NCc3cccs3)cc(Cl)nc2c1Br` [Compound 139, 2-((3R,4S)-3-aminotetrahydro-2H-pyran-4-yl)-3-bromo-5-chloro-N-(thiophen-2-ylmethyl)thieno[3,2-b]pyridin-7-amine] are at most 30 nM and 30 to 300 nM.
The matching figures for `CC#CCNc1cc(Cl)nc2c(Cl)c([C@H]3CCCC[C@@H]3N)sc12` [Compound 308, 2-((1S,2S)-2-aminocyclohexyl)-N-(but-2-yn-1-yl)-3,5-dichlorothieno[3,2-b]pyridin-7-amine]: 30 to 300 nM and 30 to 300 nM.
As to `Cc1c([C@H]2CC=CC[C@@H]2N)sc2c(NCc3ccco3)cc(Cl)nc12` [Compound 184, 2-((1S,6S)-6-aminocyclohex-3-en-1-yl)-5-chloro-N-(furan-2-ylmethyl)-3-methylthieno[3,2-b]pyridin-7-amine], the IC50 (with ATXN3 pre-mRNA; in experiment [1]) was at most 30 nM each time.
In the case of `N[C@H]1CCCC[C@]1(F)c1sc2c(NCc3cccs3)cc(Cl)nc2c1Cl` [Compound 32, 2-((1R,2S)-2-amino-1-fluorocyclohexyl)-3,5-dichloro-N-(thiophen-2-ylmethyl)thieno[3,2-b]pyridin-7-amine], the IC50 (in the experiment on ATXN3 pre-mRNA; in experiment [1]) was 30 to 300 nM each time.
For the molecule “(2-((1S,2S)-2-aminocyclohexyl)-5-chloro-7-((thiophen-2-ylmethyl)amino)thieno[3,2-b]pyridin-3-yl)methanol and (2-((1R,2R)-2-aminocyclohexyl)-5-chloro-7-((thiophen-2-ylmethyl)amino)thieno[3,2-b]pyridin-3-yl)methanol [Compound 360]”, the IC50 (in the experiment with ATXN3 pre-mRNA; in experiment [1]) was 30 to 300 nM each time.
On to `N[C@@H]1CCCC[C@@H]1c1sc2c(NCc3cccs3)cc(Cl)nc2c1Cl` [Compound 14, 2-((1S,2R)-2-aminocyclohexyl)-3,5-dichloro-N-(thiophen-2-ylmethyl)thieno[3,2-b]pyridin-7-amine], for which the IC50 (with ATXN3 pre-mRNA; in experiment [1]) was above 1000 nM in each case.
As to `Cc1c([C@H]2CC=CC[C@@H]2N)sc2c(NCc3nccs3)nc(Cl)nc12` [Compound 223, 6-((1S,6S)-6-aminocyclohex-3-en-1-yl)-2-chloro-7-methyl-N-(thiazol-2-ylmethyl)thieno[3,2-d]pyrimidin-4-amine], the IC50 (in the experiment with ATXN3 pre-mRNA; in experiment [1]) was at most 30 nM each time.
As to “2-((4R,5S)-5-aminoazepan-4-yl)-3-bromo-5-chloro-N-(thiophen-2-ylmethyl)thieno[3,2-b]pyridin-7-amine and 2-((4S,5S)-5-aminoazepan-4-yl)-3-bromo-5-chloro-N-(thiophen-2-ylmethyl)thieno[3,2-b]pyridin-7-amine [Compound 148]”, the IC50 (in the experiment on ATXN3 pre-mRNA; in experiment [1]) was above 1000 nM in each case.
Turning to `N[C@@H]1CCCCC[C@@H]1c1sc2c(NCc3cccs3)cc(Cl)nc2c1Br` [Compound 72, 2-((1S,2R)-2-aminocycloheptyl)-3-bromo-5-chloro-N-(thiophen-2-ylmethyl)thieno[3,2-b]pyridin-7-amine], the IC50 (in the experiment with ATXN3 pre-mRNA; in experiment [1]) was above 1000 nM throughout.
With `C[C@@H]1C=C[C@H](C)[C@H](N)[C@H]1c1sc2c(NCc3ccco3)cc(Cl)nc2c1Cl` [Compound 450, 2-((1S,2R,5S,6S)-6-amino-2,5-dimethylcyclohex-3-en-1-yl)-3,5-dichloro-N-(furan-2-ylmethyl)thieno[3,2-b]pyridin-7-amine], the IC50 (in the experiment with ATXN3 pre-mRNA; in experiment [1]) was 300 to 1000 nM throughout.
On to `N[C@H]1CCC[C@H]1c1cc2nc(Cl)cc(NCc3cccs3)c2s1` [Compound 111, 2-((1R,2S)-2-aminocyclopentyl)-5-chloro-N-(thiophen-2-ylmethyl)thieno[3,2-b]pyridin-7-amine], for which the values for the IC50 (in the experiment on ATXN3 pre-mRNA; in experiment [1]) were 300 to 1000 nM and above 1000 nM, respectively.
For the molecule `N[C@@H]1CCOC[C@H]1c1sc2c(NCc3cccs3)cc(Cl)nc2c1Cl` [Compound 405, 2-((3S,4R)-4-aminotetrahydro-2H-pyran-3-yl)-3,5-dichloro-N-(thiophen-2-ylmethyl)thieno[3,2-b]pyridin-7-amine], the IC50 (in the experiment on ATXN3 pre-mRNA; in experiment [1]) was at most 30 nM throughout.
Consider `N[C@@H]1CCCCC[C@H]1c1sc2c(NCc3cccs3)cc(Cl)nc2c1Cl` [Compound 78, 2-((1R,2R)-2-aminocycloheptyl)-3,5-dichloro-N-(thiophen-2-ylmethyl)thieno[3,2-b]pyridin-7-amine], for which the IC50 (in the experiment on ATXN3 pre-mRNA; in experiment [1]) was above 1000 nM throughout.

What is called IC50 is the midpoint of a concentration-inhibition curve.
